Data as given in PMC6680840 (Molecules, 2019).
Several values for one entry are separate records, joined by “and”; a condition that tells them apart may be missing. Equal entries are not always repeated.

Experiments:
[1] = target: T1, AChE (from human erythrocyte) (Homo sapiens, UniProt P22303); assay: biochemical; conditions: for AChE IR (%) inhibition ratio: at 50 μM; for IC50: mean ± SD of three separate experiments
T1 construct: AChE (EC 3.1.1.8, from human erythrocyte); purchased Sigma-Aldrich (St. Louis, MO, USA); host or cells: human erythrocyte
Protocol: (§1) BChE (EC 3.1.1.8, from human serum), AChE (EC […]), butyrylthiocholine (BUC) iodide, and acetylthiocholine (ATC) iodide were purchased from Sigma-Aldrich (St. Louis, MO, USA). Enzyme was dissolved and pre-prepared at 2.0 U/mL. 10 μL of enzyme, 20 μL of 0.01 M 5,5′-dithiobis(2-nitrobenzoic acid), 10 μL of tested compound, and 40 μL of PBS were pre-incubated together for 5 min. Io initiate the reaction, 20 μL of 0.01 M BUC or ATC was added. The activity was determined by measuring the increase in absorbance at 410 nm at 37 °C in 2 min intervals using Tecan Spark multimode microplate reader (Mannedorf, Switzerland). The percentage of inhibition (I) was calculated according to the formula: I = (Ac − Ai)/Ac × 100%, with Ai and Ac representing the change in the absorbance in the presence of an inhibitor and without an inhibitor, respectively.

[2] = target: T2, BChE (EC 3.1.1.8, from human serum) (Homo sapiens, UniProt P06276); assay: biochemical; conditions: for BChE IR (%) inhibition ratio: at 50 μM; for IC50: mean ± SD of three separate experiments
T2 construct: BChE (EC 3.1.1.8, from human serum); purchased Sigma-Aldrich (St. Louis, MO, USA); host or cells: human serum
Protocol: as §1

T1 sequence (P22303 other isoform, or with tags, fused parts or gaps): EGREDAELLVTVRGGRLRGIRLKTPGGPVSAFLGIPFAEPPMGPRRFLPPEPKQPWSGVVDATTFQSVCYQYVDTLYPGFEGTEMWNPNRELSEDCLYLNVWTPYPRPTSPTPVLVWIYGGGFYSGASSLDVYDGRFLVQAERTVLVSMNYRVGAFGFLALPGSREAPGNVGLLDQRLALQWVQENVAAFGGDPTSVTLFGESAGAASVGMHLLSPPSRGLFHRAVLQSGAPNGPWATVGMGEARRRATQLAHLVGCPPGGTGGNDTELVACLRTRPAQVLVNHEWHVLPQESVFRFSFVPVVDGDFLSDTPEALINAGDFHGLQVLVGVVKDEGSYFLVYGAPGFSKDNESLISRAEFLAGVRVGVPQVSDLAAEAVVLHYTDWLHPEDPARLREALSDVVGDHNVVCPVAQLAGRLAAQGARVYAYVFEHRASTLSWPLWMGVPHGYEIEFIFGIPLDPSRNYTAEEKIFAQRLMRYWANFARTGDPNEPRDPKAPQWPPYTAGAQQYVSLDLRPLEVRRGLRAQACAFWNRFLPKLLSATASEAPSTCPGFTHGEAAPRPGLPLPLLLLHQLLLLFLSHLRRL
T2 sequence (P06276 29-602): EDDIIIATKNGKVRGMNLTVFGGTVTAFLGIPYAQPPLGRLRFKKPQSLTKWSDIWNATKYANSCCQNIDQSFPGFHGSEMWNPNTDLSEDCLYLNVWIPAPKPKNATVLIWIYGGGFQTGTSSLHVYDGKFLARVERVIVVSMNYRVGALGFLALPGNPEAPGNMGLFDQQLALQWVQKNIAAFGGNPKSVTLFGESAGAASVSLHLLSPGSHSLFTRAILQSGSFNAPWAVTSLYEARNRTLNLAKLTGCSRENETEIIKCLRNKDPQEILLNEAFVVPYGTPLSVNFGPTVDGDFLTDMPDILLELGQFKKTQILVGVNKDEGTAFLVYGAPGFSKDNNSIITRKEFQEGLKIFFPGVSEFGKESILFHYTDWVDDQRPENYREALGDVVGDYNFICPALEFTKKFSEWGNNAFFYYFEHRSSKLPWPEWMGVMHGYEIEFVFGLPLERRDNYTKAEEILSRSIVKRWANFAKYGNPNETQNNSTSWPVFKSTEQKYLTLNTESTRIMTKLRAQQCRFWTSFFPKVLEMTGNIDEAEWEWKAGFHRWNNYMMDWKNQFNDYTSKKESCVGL

Compound | AChE IR (%) inhibition ratio [1] | BChE IR (%) inhibition ratio [2] | IC50 [1] | IC50 [2]
O=C(Nc1cccc(Br)c1)c1ccc(CN2CCc3ccccc3C2)cc1 [Compound 24, N-(3-bromophenyl)-4-((3,4-dihydroisoquinolin-2(1H)-yl)methyl)benzamide] | 21.6% | 35.1% | – | –
CCNCCNC(=O)c1ccc(CN2CCc3ccccc3C2)cc1 [Compound 4, 4-((3,4-dihydroisoquinolin-2(1H)-yl)methyl)-N-(2-(ethylamino)ethyl)benzamide] | 8.8% | 27.2% | – | –
CC(C)N(CCNC(=O)c1ccc(CN2CCc3ccccc3C2)cc1)C(C)C [Compound 2, 4-((3,4-dihydroisoquinolin-2(1H)-yl)methyl)-N-(2-(diisopropylamino)ethyl)benzamide] | 56.1% | 76.4% | 21.5 ± 0.98 µM | 9.98 ± 0.89 µM
O=C(NCCN1CCCC1)c1ccc(CN2CCc3ccccc3C2)cc1 [Compound 7, 4-((3,4-dihydroisoquinolin-2(1H)-yl)methyl)-N-(2-(pyrrolidin-1-yl)ethyl)benzamide] | 4.4% | – | – | 15.2 ± 2.33 µM
COc1cc2c(cc1OC)CN(Cc1ccc(C(=O)N3CCCC3)cc1)CC2 [Compound 14, (4-((6,7-dimethoxy-3,4-dihydroisoquinolin-2(1H)-yl)methyl)phenyl)(pyrrolidin-1-yl)methanone] | – | – | 18.2 ± 0.86 µM | –
O=C(NCc1ccc(F)cc1)c1ccc(CN2CCc3ccccc3C2)cc1 [Compound 19, 4-((3,4-dihydroisoquinolin-2(1H)-yl)methyl)-N-(4-fluorobenzyl)benzamide] | 2.3% | 83.9% | – | 14.8 ± 0.58 µM
O=C(Nc1ccc(Br)cc1)c1ccc(CN2CCc3ccccc3C2)cc1 [Compound 25, N-(4-bromophenyl)-4-((3,4-dihydroisoquinolin-2(1H)-yl)methyl)benzamide] | 40.6% | 8.1% | – | –
O=C(NCCc1c[nH]c2ccccc12)c1ccc(CN2CCc3ccccc3C2)cc1 [Compound 28, N-(2-(1H-indol-3-yl)ethyl)-4-((3,4-dihydroisoquinolin-2(1H)-yl)methyl)benzamide] | 8.4% | 1.3% | – | –
O=C(Nc1ccc(Cl)cc1F)c1ccc(CN2CCc3ccccc3C2)cc1 [Compound 21, N-(4-chloro-2-fluorophenyl)-4-((3,4-dihydroisoquinolin-2(1H)-yl)methyl)benzamide] | 5% | 38.6% | – | –
CCN1CCCC1CNC(=O)c1ccc(CN2CCc3ccccc3C2)cc1 (stereo not drawn) [Compound 8, 4-((3,4-dihydroisoquinolin-2(1H)-yl)methyl)-N-((1-ethylpyrrolidin-2-yl)methyl)benzamide] | 13.3% | 63.0% | – | 25 ± 1.27 µM
O=C(Nc1ccc(F)cc1)c1ccc(CN2CCc3ccccc3C2)cc1 [Compound 18, 4-((3,4-dihydroisoquinolin-2(1H)-yl)methyl)-N-(4-fluorophenyl)benzamide] | 7.0% | 14.1% | – | –
O=C(c1ccc(CN2CCc3ccc(Br)cc3C2)cc1)N1CCCC1 [Compound 12, (4-((7-bromo-3,4-dihydroisoquinolin-2(1H)-yl)methyl)phenyl)(pyrrolidin-1-yl)methanone] | – | – | > 50 µM | 39.4 ± 2.25 µM
COc1ccc2c(c1)CCN(Cc1ccc(C(=O)N3CCCC3)cc1)C2 [Compound 13, (4-((6-methoxy-3,4-dihydroisoquinolin-2(1H)-yl)methyl)phenyl)(pyrrolidin-1-yl)methanone] | – | – | 12.1 ± 0.9 µM | 12.6 ± 0.88 µM
O=C(Nc1cccc(F)c1)c1ccc(CN2CCc3ccccc3C2)cc1 [Compound 17, 4-((3,4-dihydroisoquinolin-2(1H)-yl)methyl)-N-(3-fluorophenyl)benzamide] | 7.7% | 10.0% | – | –
CN(C)CCNC(=O)c1ccc(CN2CCc3ccccc3C2)cc1 [Compound 3, 4-((3,4-dihydroisoquinolin-2(1H)-yl)methyl)-N-(2-(dimethylamino)ethyl)benzamide] | 11.4% | 36.9% | – | –
COc1ccc2[nH]cc(CCNC(=O)c3ccc(CN4CCc5ccccc5C4)cc3)c2c1 [Compound 30, 4-((3,4-dihydroisoquinolin-2(1H)-yl)methyl)-N-(2-(5-methoxy-1H-indol-3-yl)ethyl)benzamide] | 8.3% | 1.1% | – | –
O=C(NCCN1CCOCC1)c1ccc(CN2CCc3ccccc3C2)cc1 [Compound 6, 4-((3,4-dihydroisoquinolin-2(1H)-yl)methyl)-N-(2-morpholinoethyl)benzamide] | 13.4% | 19.1% | – | –
COC(CNC(=O)c1ccc(CN2CCc3ccccc3C2)cc1)OC [Compound 5, 4-((3,4-dihydroisoquinolin-2(1H)-yl)methyl)-N-(2,2-dimethoxyethyl)benzamide] | 2.7% | 56.6% | – | 38.1 ± 1.68 µM
O=C(Nc1ccccc1)c1ccc(CN2CCc3ccccc3C2)cc1 [Compound 15, 4-((3,4-dihydroisoquinolin-2(1H)-yl)methyl)-N-phenylbenzamide] | 8% | 23.7% | – | –
O=C(Nc1ccc(Br)cc1F)c1ccc(CN2CCc3ccccc3C2)cc1 [Compound 22, N-(4-bromo-2-fluorophenyl)-4-((3,4-dihydroisoquinolin-2(1H)-yl)methyl)benzamide] | 28.3% | 15.4% | – | –
O=C(Sc1ccccc1Br)c1ccc(CN2CCc3ccccc3C2)cc1 [Compound 27, S-(2-bromophenyl) 4-((3,4-dihydroisoquinolin-2(1H)-yl)methyl)benzothioate] | 22.8% | 1.5% | – | –
CCN(CC)CCNC(=O)c1ccc(CN2CCc3ccccc3C2)cc1 [Compound 1, N-(2-(diethylamino)ethyl)-4-((3,4-dihydroisoquinolin-2(1H)-yl)methyl)benzamide] | 26.6% | 68.4% | > 50 µM | 17.9 µM
O=C(c1ccc(CN2CCc3cc(Br)ccc3C2)cc1)N1CCCC1 [Compound 11, (4-((6-bromo-3,4-dihydroisoquinolin-2(1H)-yl)methyl)phenyl)(pyrrolidin-1-yl)methanone] | – | – | 30.6 ± 1.82 µM | 8.38 ± 0.65 µM
O=C(NNc1ccc(F)cc1)c1ccc(CN2CCc3ccccc3C2)cc1 [Compound 20, 4-((3,4-dihydroisoquinolin-2(1H)-yl)methyl)-N2019-(4-fluorophenyl)benzohydrazide] | 21.8% | 13.2% | – | –
Cc1ccc2[nH]cc(CCNC(=O)c3ccc(CN4CCc5ccccc5C4)cc3)c2c1 [Compound 29, 4-((3,4-dihydroisoquinolin-2(1H)-yl)methyl)-N-(2-(5-methyl-1H-indol-3-yl)ethyl)benzamide] | 4.6% | 6.5% | – | –
O=C(c1ccc(CN2CCc3ccccc3C2)cc1)N1CCOCC1 [Compound 10, (4-((3,4-dihydroisoquinolin-2(1H)-yl)methyl)phenyl)(morpholino)methanone] | 3.4% | 11.2% | – | –
O=C(Nc1ccccc1F)c1ccc(CN2CCc3ccccc3C2)cc1 [Compound 16, 4-((3,4-dihydroisoquinolin-2(1H)-yl)methyl)-N-(2-fluorophenyl)benzamide] | 2.1% | 74.7% | – | 6.9 µM and 6.93 µM
O=C(Oc1ccccc1Br)c1ccc(CN2CCc3ccccc3C2)cc1 [Compound 26, 2-bromophenyl 4-((3,4-dihydroisoquinolin-2(1H)-yl)methyl)benzoate] | 26.2% | 11% | – | –
